How the values were obtained:
ERRα = target: T1, ERRα (Homo sapiens, UniProt P11474); assay: ERRE luciferase reporter assay in HEK293 cells transfected with pcDNA3.1 ERRα; assay type: cell-based; design: key to EC50 (ERRα) μM: * <1 μM; ** 1-5 μM; *** >5 μM; i.a. (inactive); conditions: HEK293 cells transfected with ERRE reporter construct and pcDNA3.1 ERRα; compound for 24 hours; luciferase activity
T1 construct: expressed in transfected cells; host or cells: HEK293
T1 sequence (P11474 1-423): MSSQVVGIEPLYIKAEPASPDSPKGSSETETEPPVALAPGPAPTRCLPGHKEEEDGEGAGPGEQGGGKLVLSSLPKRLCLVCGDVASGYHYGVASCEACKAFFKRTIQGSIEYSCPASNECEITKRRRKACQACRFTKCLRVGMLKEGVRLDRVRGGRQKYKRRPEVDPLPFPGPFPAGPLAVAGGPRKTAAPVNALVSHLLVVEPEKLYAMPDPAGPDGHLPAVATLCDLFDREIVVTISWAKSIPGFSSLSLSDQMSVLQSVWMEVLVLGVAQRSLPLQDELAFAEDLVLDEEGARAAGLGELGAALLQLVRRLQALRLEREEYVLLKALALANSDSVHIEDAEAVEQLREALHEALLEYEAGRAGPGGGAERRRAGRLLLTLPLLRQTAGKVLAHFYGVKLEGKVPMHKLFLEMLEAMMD
Protocol: (§1) HEK293 cells were maintained in Dulbecco's modified Eagles medium (DMEM) supplemented with 10% fetal bovine serum at 37° C. under […]. […] Cells were transfected with ERRE reporter construct and pcDNA3.1 ERRα or ERRγ. Twenty-four-hours post-transfection, the cells were treated with vehicle or compound (various concentrations) for 24 hours (4 wells per dose). Luciferase activity was measured using the One-Glo Tox luciferase reporter assay system (Promega) and EC50s were calculated using GraphPad Prism software.

ERRγ = target: T2, ERRγ (Homo sapiens, UniProt P62508); assay: ERRE luciferase reporter assay in HEK293 cells transfected with pcDNA3.1 ERRγ; assay type: cell-based; design: key to EC50 (ERRγ) μM: * <1 μM; ** 1-5 μM; *** >5 μM; i.a. (inactive); conditions: HEK293 cells transfected with ERRE reporter construct and pcDNA3.1 ERRγ; compound for 24 hours; luciferase activity
T2 construct: expressed in transfected cells; host or cells: HEK293
T2 sequence (P62508 1-458): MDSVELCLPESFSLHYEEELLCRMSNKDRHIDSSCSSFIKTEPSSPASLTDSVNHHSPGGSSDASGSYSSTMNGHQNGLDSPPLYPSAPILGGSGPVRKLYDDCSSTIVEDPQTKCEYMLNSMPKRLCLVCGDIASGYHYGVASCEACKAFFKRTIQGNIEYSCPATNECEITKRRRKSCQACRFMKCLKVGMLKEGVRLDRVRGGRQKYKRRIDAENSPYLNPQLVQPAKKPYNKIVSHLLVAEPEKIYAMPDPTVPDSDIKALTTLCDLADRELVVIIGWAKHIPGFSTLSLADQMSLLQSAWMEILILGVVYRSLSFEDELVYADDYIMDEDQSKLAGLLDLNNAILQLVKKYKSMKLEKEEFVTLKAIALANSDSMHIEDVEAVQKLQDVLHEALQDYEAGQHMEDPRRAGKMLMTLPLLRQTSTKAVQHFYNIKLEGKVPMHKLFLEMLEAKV
Protocol: as §1

Structure (SMILES) | EC50 (ERRα) | EC50 (ERRγ) | EC50 (ERRα) μM (ERRα) | EC50 (ERRγ) μM (ERRγ)
CCCCOc1ccc(-c2nnc(-c3ccccc3Cl)s2)cc1 [Entry 1052, 2-(4-butoxyphenyl)-5-(2-chlorophenyl)-1,3,4-thiadiazole] | < 1000 nM | < 1000 nM | – | –
COc1ccc(-c2nnc(-c3ccccc3Cl)o2)cc1 [Entry 28, 2-(2-chlorophenyl)-5-(4-methoxyphenyl)-1,3,4-oxadiazole] | < 1000 nM | < 1000 nM | – | –
CC(C)(C)c1ccc(-c2nnc(-c3ccccc3N)o2)cc1 [Entry 75, 2-(5-(4-(tert-butyl)phenyl)-1,3,4-oxadiazol-2-yl)aniline] | < 1000 nM | < 1000 nM | – | –
Cc1ccc(-c2nnc(-c3ccccc3)s2)cc1 [Entry 1002, 2-phenyl-5-(p-tolyl)-1,3,4-thiadiazole] | < 1000 nM | < 1000 nM | – | –
COc1ccc(-c2nnc(-c3ccccn3)o2)cc1 [Entry 24, 2-(4-methoxyphenyl)-5-(pyridin-2-yl)-1,3,4-oxadiazole] | – | – | i.a. | i.a.
c1ccc(-c2nnc(-c3cnccn3)s2)cc1 [Entry 1010, 2-phenyl-5-(pyrazin-2-yl)-1,3,4-thiadiazole] | < 1000 nM | < 1000 nM | – | –
FC(F)(F)c1cccc(-c2nnc(-c3cccnc3Cl)s2)c1 [Entry 1074, 2-(2-chloropyridin-3-yl)-5-(3-(trifluoromethyl)phenyl)-1,3,4-thiadiazole] | 1000 to 5000 nM | 1000 to 5000 nM | – | –
Clc1ccccc1-c1nnc(-c2cccc3ncccc23)s1 [Entry 1059, 2-(2-chlorophenyl)-5-(quinolin-5-yl)-1,3,4-thiadiazole] | < 1000 nM | < 1000 nM | – | –
Cc1ccc(-c2nnc(-c3ccc4ccccc4c3)s2)cc1 [Entry 1044, 2-(naphthalen-2-yl)-5-(p-tolyl)-1,3,4-thiadiazole] | > 5000 nM | < 1000 nM | – | –
COc1ccc([N+](=O)[O-])c(-c2nnc(-c3ccccc3)o2)c1 [Entry 87, 2-(5-methoxy-2-nitrophenyl)-5-phenyl-1,3,4-oxadiazole] | 1000 to 5000 nM | > 5000 nM | – | –
O=[N+]([O-])c1ccc(-c2nnc(-c3ccc(C(F)(F)F)cc3)o2)cc1 [Entry 52, 2-(4-nitrophenyl)-5-(4-(trifluoromethyl)phenyl)-1,3,4-oxadiazole] | > 5000 nM | > 5000 nM | – | –
COc1cccc(-c2nnc(-c3cccc(C(F)(F)F)c3)o2)c1 [Entry 66, 2-(3-methoxyphenyl)-5-(3-(trifluoromethyl)phenyl)-1,3,4-oxadiazole] | 1000 to 5000 nM | 1000 to 5000 nM | – | –
Cc1ccc(-c2nnc(-c3ccccc3)o2)cc1 [Entry 4, 2-phenyl-5-(p-tolyl)-1,3,4-oxadiazole] | < 1000 nM | < 1000 nM | – | –
Clc1ccccc1-c1nnc(-c2nccs2)s1 [Entry 1061, 2-(2-chlorophenyl)-5-(thiazol-2-yl)-1,3,4-thiadiazole] | > 5000 nM | > 5000 nM | – | –
c1ccc(-c2nnc(C3CCCCC3)s2)cc1 [Entry 1006, 2-cyclohexyl-5-phenyl-1,3,4-thiadiazole] | < 1000 nM | < 1000 nM | – | –
FC(F)(F)c1ccc(-c2nnc(-c3cccc4ncccc34)s2)cc1 [Entry 1062, 2-(quinolin-5-yl)-5-(4-(trifluoromethyl)phenyl)-1,3,4-thiadiazole] | < 1000 nM | < 1000 nM | – | –
COC(=O)c1cccc(-c2nnc(-c3ccc(C(F)(F)F)cc3)s2)c1 [Entry 1064, methyl 3-(5-(4-(trifluoromethyl)phenyl)-1,3,4-thiadiazol-2-yl)benzoate] | > 5000 nM | 1000 to 5000 nM | – | –
Cc1ccc(-c2nnc(-c3ccc(C)o3)s2)cc1 [Entry 1029, 2-(5-methylfuran-2-yl)-5-(p-tolyl)-1,3,4-thiadiazole] | 1000 to 5000 nM | < 1000 nM | – | –
O=[N+]([O-])c1ccc(-c2nnc(-c3cccc([N+](=O)[O-])c3)o2)cc1 [Entry 12, 2-(3-nitrophenyl)-5-(4-nitrophenyl)-1,3,4-oxadiazole] | 1000 to 5000 nM | 1000 to 5000 nM | – | –
COc1ccc(-c2nnc(-c3ccc(C)o3)o2)cc1 [Entry 19, 2-(4-methoxyphenyl)-5-(5-methylfuran-2-yl)-1,3,4-oxadiazole] | < 1000 nM | < 1000 nM | – | –
COc1cccc(-c2nnc(-c3ccccc3)s2)c1[N+](=O)[O-] [Entry 1023, 2-(3-methoxy-2-nitrophenyl)-5-phenyl-1,3,4-thiadiazole] | < 1000 nM | < 1000 nM | – | –
COc1ccc(-c2nnc(-c3ccccc3[N+](=O)[O-])s2)cc1 [Entry 1021, 2-(4-methoxyphenyl)-5-(2-nitrophenyl)-1,3,4-thiadiazole] | < 1000 nM | < 1000 nM | – | –
Cc1cccc(-c2nnc(-c3cccc(C(F)(F)F)c3)s2)n1 [Entry 1073, 2-(6-methylpyridin-2-yl)-5-(3-(trifluoromethyl)phenyl)-1,3,4-thiadiazole] | > 5000 nM | 1000 to 5000 nM | – | –
O=[N+]([O-])c1cccc(-c2nnc(-c3ccccc3)o2)c1 [Entry 81, 2-(3-nitrophenyl)-5-phenyl-1,3,4-oxadiazole] | 1000 to 5000 nM | 1000 to 5000 nM | – | –

The remaining lines, values ahead:

EC50 (ERRα) | EC50 (ERRγ) | EC50 (ERRα) μM (ERRα) | EC50 (ERRγ) μM (ERRγ) | Structure (SMILES)
< 1000 nM | < 1000 nM | – | – | COc1ccc(-c2nnc(-c3ccccc3N)o2)cc1 [Entry 74, 2-(5-(4-methoxyphenyl)-1,3,4-oxadiazol-2-yl)aniline]
< 1000 nM | < 1000 nM | – | – | Cc1ccc(-c2nnc(-c3ccc(Cl)cc3)s2)cc1 [Entry 1048, 2-(4-chlorophenyl)-5-(p-tolyl)-1,3,4-thiadiazole]
< 1000 nM | < 1000 nM | – | – | COc1ccc(-c2nnc(-c3ccc(OC)cc3)o2)cc1 [Entry 30, 2,5-bis(4-methoxyphenyl)-1,3,4-oxadiazole]
< 1000 nM | < 1000 nM | – | – | Cc1ccc(-c2nnc(-c3ccccc3[N+](=O)[O-])o2)cc1 [Entry 37, 2-(2-nitrophenyl)-5-(p-tolyl)-1,3,4-oxadiazole]
– | – | i.a. | i.a. | Oc1ccc(-c2nnc(-c3ccc4ccccc4n3)s2)cc1 [Entry 1047, 4-(5-(quinolin-2-yl)-1,3,4-thiadiazol-2-yl)phenol]
< 1000 nM | < 1000 nM | – | – | COc1ccc(-c2nnc(-c3cccs3)o2)cc1 [Entry 20, 2-(4-methoxyphenyl)-5-(thiophen-2-yl)-1,3,4-oxadiazole]
< 1000 nM | < 1000 nM | – | – | c1ccc(-c2nnc(-c3cccs3)o2)cc1 [Entry 3]
< 1000 nM | < 1000 nM | – | – | Cc1cccc(-c2nnc(-c3ccccc3)o2)c1[N+](=O)[O-] [Entry 89, 2-(3-methyl-2-nitrophenyl)-5-phenyl-1,3,4-oxadiazole]
< 1000 nM | < 1000 nM | – | – | COc1ccc(-c2nnc(-c3ccccc3)s2)cc1 [Entry 1001, 2-(4-methoxyphenyl)-5-phenyl-1,3,4-thiadiazole]
< 1000 nM | < 1000 nM | – | – | COc1cccc(-c2nnc(-c3ccccc3)o2)c1[N+](=O)[O-] [Entry 88, 2-(3-methoxy-2-nitrophenyl)-5-phenyl-1,3,4-oxadiazole]
> 5000 nM | < 1000 nM | – | – | Cc1cccc(-c2nnc(-c3ccccc3Cl)s2)c1 [Entry 1041, 2-(2-chlorophenyl)-5-(m-tolyl)-1,3,4-thiadiazole]
< 1000 nM | < 1000 nM | – | – | Cc1ccc(-c2nnc(-c3ccc(B(O)O)cc3)s2)cc1 [Entry 1055, (4-(5-(p-tolyl)-1,3,4-thiadiazol-2-yl)phenyl)boronic acid]

Reference: US20260274807A1 (University of Health Sciences and Pharmacy in St. Louis, priority 2023, published 2026)
